Assay results reported in US20210045385A1, “PYRIDAZINONE-SUBSTITUTED KETOXIMES AS HERBICIDES” (FMC Corporation, priority 2018, published 2021).

Assays:
Assay type in all cases: in vivo
[1] = system: Italian ryegrass (Lolium multiflorum); assay: Test A preemergence, visual plant response rating; settings: approx. 10 days
Procedure, shortened: (§1)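 Ratings 0–100 (100 = complete control), visual, vs untreated controls at ~10 days. Application pre- or postemergence; solvent mixture with surfactant; loam/sand medium.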

[2] = system: barnyardgrass (Echinochloa crus-galli); assay: Test A preemergence, visual plant response rating; settings: approx. 10 days
Procedure, shortened: as §1

[3] = system: foxtail, green (green foxtail, Setaria viridis); assay: Test A preemergence, visual plant response rating; settings: approx. 10 days
Procedure, shortened: as §1

[4] = system: kochia (Kochia scoparia); assay: Test A preemergence, visual plant response rating; settings: approx. 10 days
Procedure, shortened: as §1

[5] = system: pigweed (Amaranthus retroflexus); assay: Test A preemergence, visual plant response rating; settings: approx. 10 days
Procedure, shortened: as §1

[6] = system: ragweed (common ragweed, Ambrosia elatior); assay: Test A preemergence, visual plant response rating; settings: approx. 10 days
Procedure, shortened: as §1

[7] = system: Italian ryegrass (Lolium multiflorum); assay: Test A postemergence, visual plant response rating; settings: for Ryegrass, Italian plant response rating (0 to 100 scale): 500 g ai/ha, postemergence, 0 is no effect, 100 is complete control; for Ryegrass, Italian plant response rating: Postemergence, 125 g ai/ha, 0 to 100 scale (0 no effect, 100 complete control)
Procedure, shortened: as §1

[8] = system: barnyardgrass (Echinochloa crus-galli); assay: Test A postemergence, visual plant response rating; settings: for Barnyardgrass plant response rating (0 to 100 scale): 500 g ai/ha, postemergence, 0 is no effect, 100 is complete control; for Barnyardgrass plant response rating: Postemergence, 125 g ai/ha, 0 to 100 scale (0 no effect, 100 complete control)
Procedure, shortened: as §1

[9] = system: blackgrass (Alopecurus myosuroides); assay: Test A postemergence, visual plant response rating; settings: for Blackgrass plant response rating (0 to 100 scale): 500 g ai/ha, postemergence, 0 is no effect, 100 is complete control; for Blackgrass plant response rating: Postemergence, 125 g ai/ha, 0 to 100 scale (0 no effect, 100 complete control)
Procedure, shortened: as §1

[10] = system: corn (Zea mays); assay: Test A postemergence, visual plant response rating; settings: for Corn plant response rating (0 to 100 scale): 500 g ai/ha, postemergence, 0 is no effect, 100 is complete control; for Corn plant response rating: Postemergence, 125 g ai/ha, 0 to 100 scale (0 no effect, 100 complete control)
Procedure, shortened: as §1

[11] = system: foxtail, green (green foxtail, Setaria viridis); assay: Test A postemergence, visual plant response rating; settings: for Foxtail, Green plant response rating (0 to 100 scale): 500 g ai/ha, postemergence, 0 is no effect, 100 is complete control; for Foxtail, Green plant response rating: Postemergence, 125 g ai/ha, 0 to 100 scale (0 no effect, 100 complete control)
Procedure, shortened: as §1

[12] = system: galium (catchweed bedstraw, Galium aparine); assay: Test A postemergence, visual plant response rating; settings: for Galium plant response rating (0 to 100 scale): 500 g ai/ha, postemergence, 0 is no effect, 100 is complete control; for Galium plant response rating: Postemergence, 125 g ai/ha, 0 to 100 scale (0 no effect, 100 complete control)
Procedure, shortened: as §1

[13] = system: kochia (Kochia scoparia); assay: Test A postemergence, visual plant response rating; settings: for Kochia plant response rating (0 to 100 scale): 500 g ai/ha, postemergence, 0 is no effect, 100 is complete control; for Kochia plant response rating: Postemergence, 125 g ai/ha, 0 to 100 scale (0 no effect, 100 complete control)
Procedure, shortened: as §1

[14] = system: pigweed (Amaranthus retroflexus); assay: Test A postemergence, visual plant response rating; settings: for Pigweed plant response rating (0 to 100 scale): 500 g ai/ha, postemergence, 0 is no effect, 100 is complete control; for Pigweed plant response rating: Postemergence, 125 g ai/ha, 0 to 100 scale (0 no effect, 100 complete control)
Procedure, shortened: as §1

[15] = system: ragweed (common ragweed, Ambrosia elatior); assay: Test A postemergence, visual plant response rating; settings: for Ragweed plant response rating (0 to 100 scale): 500 g ai/ha, postemergence, 0 is no effect, 100 is complete control; for Ragweed plant response rating: Postemergence, 125 g ai/ha, 0 to 100 scale (0 no effect, 100 complete control)
Procedure, shortened: as §1

[16] = system: wheat (Triticum aestivum); assay: Test A postemergence, visual plant response rating; settings: for Wheat plant response rating (0 to 100 scale): 500 g ai/ha, postemergence, 0 is no effect, 100 is complete control; for Wheat plant response rating: Postemergence, 125 g ai/ha, 0 to 100 scale (0 no effect, 100 complete control)
Procedure, shortened: as §1

[17] = system: barnyardgrass (Echinochloa crus-galli); assay: Test B flooded paddy test, visual plant response rating; settings: 250 g ai/ha, Flood, applied to paddy water, 2-leaf stage, evaluated after 13 to 15 days
Procedure, shortened: (§2)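 Visual scores compare treated plants with controls after 13 to 15 days of greenhouse growth. Treatment was made into paddy water standing 3 cm above the soil, with plants at the 2-leaf stage and flooding maintained throughout.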

[18] = system: ducksalad (Heteranhera limosa); assay: as above; settings: 250 g ai/ha, Flood, applied to paddy water, 2-leaf stage, evaluated after 13 to 15 days
Procedure, shortened: as §2

[19] = system: rice (Oryza sativa); assay: as above; settings: 250 g ai/ha, Flood, applied to paddy water, 2-leaf stage, evaluated after 13 to 15 days
Procedure, shortened: as §2

[20] = system: sedge, umbrella (small-flower umbrella sedge, Cyperus difformis); assay: as above; settings: 250 g ai/ha, Flood, applied to paddy water, 2-leaf stage, evaluated after 13 to 15 days
Procedure, shortened: as §2

Row | Compound | Ryegrass, Italian plant response rating (0 to 100 scale) ([1]; 125 g ai/ha Preemergence) | Ryegrass, Italian plant response rating (0 to 100 scale) ([1]; 500 g ai/ha Preemergence) | Barnyardgrass plant response rating (0 to 100 scale) ([2]; 125 g ai/ha Preemergence) | Barnyardgrass plant response rating (0 to 100 scale) ([2]; 500 g ai/ha Preemergence) | Foxtail, Green plant response rating (0 to 100 scale) ([3]; 125 g ai/ha Preemergence) | Foxtail, Green plant response rating (0 to 100 scale) ([3]; 500 g ai/ha Preemergence) | Kochia plant response rating (0 to 100 scale) ([4]; 125 g ai/ha Preemergence) | Kochia plant response rating (0 to 100 scale) ([4]; 500 g ai/ha Preemergence) | Pigweed plant response rating (0 to 100 scale) ([5]; 125 g ai/ha Preemergence) | Pigweed plant response rating (0 to 100 scale) ([5]; 500 g ai/ha Preemergence) | Ragweed plant response rating (0 to 100 scale) ([6]; 125 g ai/ha Preemergence) | Ragweed plant response rating (0 to 100 scale) ([6]; 500 g ai/ha Preemergence) | Ryegrass, Italian plant response rating (0 to 100 scale) [7] | Ryegrass, Italian plant response rating [7] | Barnyardgrass plant response rating (0 to 100 scale) [8] | Barnyardgrass plant response rating [8] | Blackgrass plant response rating (0 to 100 scale) [9] | Blackgrass plant response rating [9] | Corn plant response rating (0 to 100 scale) [10] | Corn plant response rating [10] | further results
1 | CO/N=C(\c1cccc(C)c1)c1c(O)c(C)nn(C)c1=O [Compound 13] | 50 | 100 | 0 | 80 | 0 | 20 | 30 | 30 | 90 | 80 | 30 | 100 | 90 | 80 | 50 | 10 | 50 | 10 | 10 | 0 | Foxtail, Green plant response rating (0 to 100 scale) [11]: 60; Foxtail, Green plant response rating [11]: 10; Galium plant response rating (0 to 100 scale) [12]: 100; Galium plant response rating [12]: 90; Kochia plant response rating (0 to 100 scale) [13]: 60; Kochia plant response rating [13]: 20; Pigweed plant response rating (0 to 100 scale) [14]: 90; Pigweed plant response rating [14]: 40; Ragweed plant response rating (0 to 100 scale) [15]: 70; Ragweed plant response rating [15]: 70; Wheat plant response rating (0 to 100 scale) [16]: 0; Wheat plant response rating [16]: 0; Plant response rating, Barnyardgrass (0 to 100 scale, 0 is no effect, 100 is complete control) [17]: 0; Plant response rating, Ducksalad (0 to 100 scale, 0 is no effect, 100 is complete control) [18]: 0; Plant response rating, Rice (0 to 100 scale, 0 is no effect, 100 is complete control) [19]: 0; Plant response rating, Sedge, Umbrella (0 to 100 scale, 0 is no effect, 100 is complete control) [20]: 0
2 | CCO/N=C(\c1ccccc1C)c1c(O)c(C)nn(C)c1=O [Compound 14] | 20 | 90 | 40 | 80 | 20 | 70 | 0 | 20 | 0 | 50 | 80 | 80 | 60 | 60 | 40 | 20 | 60 | 30 | 10 | 0 | Foxtail, Green plant response rating (0 to 100 scale) [11]: 40; Foxtail, Green plant response rating [11]: 20; Galium plant response rating (0 to 100 scale) [12]: 90; Galium plant response rating [12]: 90; Kochia plant response rating (0 to 100 scale) [13]: 50; Kochia plant response rating [13]: 20; Pigweed plant response rating (0 to 100 scale) [14]: 80; Pigweed plant response rating [14]: 20; Ragweed plant response rating (0 to 100 scale) [15]: 70; Ragweed plant response rating [15]: 60; Wheat plant response rating (0 to 100 scale) [16]: 0; Wheat plant response rating [16]: 0; Plant response rating, Barnyardgrass (0 to 100 scale, 0 is no effect, 100 is complete control) [17]: 0; Plant response rating, Ducksalad (0 to 100 scale, 0 is no effect, 100 is complete control) [18]: 0; Plant response rating, Rice (0 to 100 scale, 0 is no effect, 100 is complete control) [19]: 0; Plant response rating, Sedge, Umbrella (0 to 100 scale, 0 is no effect, 100 is complete control) [20]: 0
3 | CCO/N=C(/c1ccccc1C)c1c(O)c(C)nn(C)c1=O [Compound 15] | 70 | 80 | 30 | 80 | 0 | 60 | 0 | 10 | 60 | 70 | 30 | 90 | 80 | 60 | 30 | 10 | 60 | 30 | 10 | 0 | Foxtail, Green plant response rating (0 to 100 scale) [11]: 30; Foxtail, Green plant response rating [11]: 10; Galium plant response rating (0 to 100 scale) [12]: 90; Galium plant response rating [12]: 80; Kochia plant response rating (0 to 100 scale) [13]: 20; Kochia plant response rating [13]: 0; Pigweed plant response rating (0 to 100 scale) [14]: 30; Pigweed plant response rating [14]: 20; Ragweed plant response rating (0 to 100 scale) [15]: 80; Ragweed plant response rating [15]: 60; Wheat plant response rating (0 to 100 scale) [16]: 0; Wheat plant response rating [16]: 0; Plant response rating, Barnyardgrass (0 to 100 scale, 0 is no effect, 100 is complete control) [17]: 0; Plant response rating, Ducksalad (0 to 100 scale, 0 is no effect, 100 is complete control) [18]: 0; Plant response rating, Rice (0 to 100 scale, 0 is no effect, 100 is complete control) [19]: 0; Plant response rating, Sedge, Umbrella (0 to 100 scale, 0 is no effect, 100 is complete control) [20]: 0
4 | CCO/N=C(/c1ccc(C)cc1)c1c(O)c(C)nn(C)c1=O [Compound 16] | 0 | 50 | 0 | 0 | 0 | 0 | 0 | 0 | 0 | 0 | 0 | 20 | 0 | 0 | 10 | 0 | 0 | 0 | 0 | 0 | Foxtail, Green plant response rating (0 to 100 scale) [11]: 10; Foxtail, Green plant response rating [11]: 0; Galium plant response rating (0 to 100 scale) [12]: 0; Galium plant response rating [12]: 0; Kochia plant response rating (0 to 100 scale) [13]: 10; Kochia plant response rating [13]: 0; Pigweed plant response rating (0 to 100 scale) [14]: 0; Pigweed plant response rating [14]: 0; Ragweed plant response rating (0 to 100 scale) [15]: 30; Ragweed plant response rating [15]: 0; Wheat plant response rating (0 to 100 scale) [16]: 0; Wheat plant response rating [16]: 0; Plant response rating, Barnyardgrass (0 to 100 scale, 0 is no effect, 100 is complete control) [17]: 0; Plant response rating, Ducksalad (0 to 100 scale, 0 is no effect, 100 is complete control) [18]: 0; Plant response rating, Rice (0 to 100 scale, 0 is no effect, 100 is complete control) [19]: 0; Plant response rating, Sedge, Umbrella (0 to 100 scale, 0 is no effect, 100 is complete control) [20]: 0
